The text below walks through data of publication PMC7616175 (ACS chemical neuroscience, 2018).

Residue numbers refer to the chain shown, from its start.

The target of experiment [1] is T1, hM1 mAChR (Homo sapiens, UniProt P11229).
T1 sequence (P11229 1-460): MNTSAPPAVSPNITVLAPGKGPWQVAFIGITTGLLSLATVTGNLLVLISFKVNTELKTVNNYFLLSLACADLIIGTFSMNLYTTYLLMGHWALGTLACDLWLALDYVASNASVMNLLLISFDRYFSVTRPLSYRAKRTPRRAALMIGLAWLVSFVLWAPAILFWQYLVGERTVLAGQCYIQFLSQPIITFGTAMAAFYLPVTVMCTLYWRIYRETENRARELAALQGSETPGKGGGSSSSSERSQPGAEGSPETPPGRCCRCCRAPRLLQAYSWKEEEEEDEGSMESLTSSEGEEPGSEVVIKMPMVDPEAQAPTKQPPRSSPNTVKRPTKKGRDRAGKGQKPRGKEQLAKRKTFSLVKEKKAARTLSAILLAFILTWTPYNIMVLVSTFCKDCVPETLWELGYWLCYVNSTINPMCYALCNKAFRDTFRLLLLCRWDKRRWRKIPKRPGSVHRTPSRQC
The experiment is described as follows: Radioligand equilibrium binding assay.

A further experiment deals with T2, M1 mAChR (Mus musculus, UniProt P12657).
T2 sequence (P12657 1-460): T1 sequence (P11229 1-460) with A5V, T254S, R320K, A337G, I413V
Kind of experiment: IP1 accumulation assay in mouse primary cortical neurons. Type of experiment: cell-based. The settings on record: for log τB (logarithm of the operational efficacy estimate) / τB (antilogarithm of the operational efficacy parameter): IP1 accumulation.

Experiment [2] concerns the target T1, hM1 mAChR. Kind of experiment: IP1 accumulation assay in FlpInCHO-hM1. Type of experiment: cell-based. The settings on record: for cluster of two-point profile (change in baseline versus change in pEC50): 1 and 10 μM modulator, compared with BQCA, CHO-M1 cells; for log τB (logarithm of the operational efficacy parameter of the allosteric modulator): operational model of allosterism (eq 2); for log τB (logarithm of the operational efficacy parameter of the allosteric modulator) / log αβ (logarithm of the functional cooperativity estimate between ACh and allosteric modulator): pKB fixed to binding value; for log αβ (logarithm of the functional cooperativity estimate between ACh and allosteric modulator): operational model of allosterism.

The mark [3] stands for this setting: 3H-NMS 0.5 nM, allosteric ternary complex model.
Where [4] appears, read: mouse cortical neurons, ACh-mediated IP1 accumulation.

For `COc1ccc(Cn2cc(C(=O)O)c(=O)c3ccccc32)cc1` [BQCA, reference compound], the “log α (logarithm of the binding cooperativity between ACh and allosteric modulator)” value on hM1 mAChR [1] (setting [3]) stood at 1.26 ± 0.13. On M1 mAChR (setting [4]), the “log αβ (logarithm of the functional cooperativity estimate)” value is 1.73 ± 0.34, the “pKB (negative logarithm of the functional binding affinity estimate for the allosteric modulator)” value is reported as 4.69 ± 0.40 and the “αβ (antilogarithm of the functional cooperativity parameter)” value is “(54)”.
Consider `Cn1cc(-c2ccc(COc3ccccc3-c3cc(=O)n(C4CCCCC4O)cn3)cc2)cn1` (centres unmarked) [Compound 2, 3-(2-Hydroxycyclohexyl)-6-(2-((4-(1-methyl-1H-pyrazol-4-yl)-benzyl)oxy)phenyl)pyrimidin-4(3H)-one], for which, at hM1 mAChR [2], the “cluster of two-point profile (change in baseline versus change in pEC50)” value is reported as “cluster 2”; the “log τB (logarithm of the operational efficacy parameter of the allosteric modulator)” value is on record as 0.45 ± 0.08; the “log αβ (logarithm of the functional cooperativity estimate between ACh and allosteric modulator)” value is reported as 0.79 ± 0.38. Further, the Kb on hM1 mAChR [1] is 0.324 µM. Moreover, the “log α (logarithm of the binding cooperativity between ACh and allosteric modulator)” value on hM1 mAChR [1] (setting [3]) is on record as 1.07 ± 0.19. On M1 mAChR, this compound gave a Kb of 9.55 µM. Besides, at M1 mAChR (setting [4]), the “log αβ (logarithm of the functional cooperativity estimate)” value was 2.12 ± 0.18 and the “αβ (antilogarithm of the functional cooperativity parameter)” value is reported as “(132)”. Further, on M1 mAChR (mouse cortical neurons), the “log τB (logarithm of the operational efficacy estimate)” value is reported as 0.47 ± 0.13 and the “τB (antilogarithm of the operational efficacy parameter)” value was “(2.95)”.
In the case of `Cc1ccc(COc2ccccc2-c2cc(=O)n(C3CCCCC3O)cn2)cn1` (centres unmarked) [Compound 9i, 3-(2-Hydroxycyclohexyl)-6-(2-((6-methylpyridin-3-yl)methoxy)-phenyl)pyrimidin-4(3H)-one], at hM1 mAChR [2], the “log τB (logarithm of the operational efficacy parameter of the allosteric modulator)” value was 0.37 ± 0.05; the “log αβ (logarithm of the functional cooperativity estimate between ACh and allosteric modulator)” value was 1.24 ± 0.18. This compound gave a Kb on hM1 mAChR [1] of 5.5 µM. For the same compound, the “log α (logarithm of the binding cooperativity between ACh and allosteric modulator)” value on hM1 mAChR [1] (setting [3]) is 1.30 ± 0.16. The Kb at M1 mAChR was 3.24 µM. Also, on M1 mAChR (setting [4]), the “log αβ (logarithm of the functional cooperativity estimate)” value is 0.98 ± 0.11 and the “αβ (antilogarithm of the functional cooperativity parameter)” value is on record as “(9.5)”. Besides, at M1 mAChR (mouse cortical neurons), the “log τB (logarithm of the operational efficacy estimate)” value is −0.52 ± 0.09 and the “τB (antilogarithm of the operational efficacy parameter)” value is listed as “(0.30)”.
`NS(=O)(=O)c1ccc(COc2ccccc2-c2cc(=O)n(C3CCCCC3O)cn2)cc1` (centres unmarked) [Compound 9k, 4-((2-(1-(2-Hydroxycyclohexyl)-6-oxo-1,6-dihydropyrimidin-4-yl)phenoxy)methyl) benzenesulfonamide]: the “cluster of two-point profile (change in baseline versus change in pEC50)” value on hM1 mAChR [2] is on record as “cluster 2”.
On to `CN(C)S(=O)(=O)c1ccc(COc2ccccc2-c2cc(=O)n(C3CCCCC3O)cn2)cc1` (centres unmarked) [Compound 9l, 4-((2-(1-(2-Hydroxycyclohexyl)-6-oxo-1,6-dihydropyrimidin-4-yl)phenoxy)methyl)-N,N-dimethylbenzenesulfonamide], for which, on hM1 mAChR [2], the “cluster of two-point profile (change in baseline versus change in pEC50)” value was “cluster 3”.
In the case of `O=c1cc(-c2ccccc2OCc2ccc(-c3cn[nH]c3)cc2)ncn1C1CCCCC1O` (centres unmarked) [Compound 10, 6-(2-((4-(1H-Pyrazol-4-yl)benzyl)oxy)phenyl)-3-(2-hydroxycyclohexyl)pyrimidin-4(3H)-one], the “cluster of two-point profile (change in baseline versus change in pEC50)” value at hM1 mAChR [2] is “cluster 2”.
Consider `O=c1cc(-c2ccccc2OCc2ccccc2)ncn1C1CCCCC1O` (centres unmarked) [Compound 13, 6-(2-(Benzyloxy)phenyl)-3-(2-hydroxycyclohexyl)pyrimidin-4(3H)-one], for which, at hM1 mAChR [2], the “cluster of two-point profile (change in baseline versus change in pEC50)” value is reported as “cluster 1”; the “log τB (logarithm of the operational efficacy parameter of the allosteric modulator)” value turned out to be 0.34 ± 0.05; the “log αβ (logarithm of the functional cooperativity estimate between ACh and allosteric modulator)” value is 1.30 ± 0.14. In addition, the Kb at hM1 mAChR [1] is 2.95 µM. In addition, the “log α (logarithm of the binding cooperativity between ACh and allosteric modulator)” value at hM1 mAChR [1] (setting [3]) came out at 1.14 ± 0.13.
Regarding `O=C(O)c1ccc(COc2ccccc2-c2cc(=O)n(C3CCCCC3O)cn2)cc1` (centres unmarked) [Compound 14a, 4-((2-(1-(2-Hydroxycyclohexyl)-6-oxo-1,6-dihydropyrimidin-4-yl)phenoxy)methyl)benzoic acid], the “cluster of two-point profile (change in baseline versus change in pEC50)” value at hM1 mAChR [2] is “cluster 1”.
Regarding `NC(=O)c1ccc(COc2ccccc2-c2cc(=O)n(C3CCCCC3O)cn2)cc1` (centres unmarked) [Compound 14b, 4-((2-(1-(2-Hydroxycyclohexyl)-6-oxo-1,6-dihydropyrimidin-4-yl)phenoxy)methyl) benzamide], on hM1 mAChR [2], the “cluster of two-point profile (change in baseline versus change in pEC50)” value is on record as “cluster 2”; the “log τB (logarithm of the operational efficacy parameter of the allosteric modulator)” value worked out at 0.61 ± 0.06; the “log αβ (logarithm of the functional cooperativity estimate between ACh and allosteric modulator)” value is reported as 1.14 ± 0.26. Besides, on hM1 mAChR [1] (setting [3]), the “log α (logarithm of the binding cooperativity between ACh and allosteric modulator)” value was 1.11 ± 0.09; the “pKB (negative logarithm of the binding affinity estimate of the allosteric modulator)” value was 6.72 ± 0.03.
In the case of `CN(C)C(=O)c1ccc(COc2ccccc2-c2cc(=O)n(C3CCCCC3O)cn2)cc1` (centres unmarked) [Compound 15a, 4-((2-(1-(2-Hydroxycyclohexyl)-6-oxo-1,6-dihydropyrimidin-4-yl)phenoxy)methyl)-N,N-dimethylbenzamide], at hM1 mAChR [2], the “cluster of two-point profile (change in baseline versus change in pEC50)” value was “cluster 3”.
The same measure, in the same setting: the value for `CNC(=O)c1ccc(COc2ccccc2-c2cc(=O)n(C3CCCCC3O)cn2)cc1` (centres unmarked) [Compound 15b, 4-((2-(1-(2-Hydroxycyclohexyl)-6-oxo-1,6-dihydropyrimidin-4-yl)phenoxy)methyl)-N-methylbenzamide] was “cluster 4”.
With `CCN(CC)C(=O)c1ccc(COc2ccccc2-c2cc(=O)n(C3CCCCC3O)cn2)cc1` (centres unmarked) [Compound 15c, N,N-Diethyl-4-((2-(1-(2-hydroxycyclohexyl)-6-oxo-1,6-dihydropyrimidin-4-yl)phenoxy)methyl)benzamide], at hM1 mAChR [2], the “cluster of two-point profile (change in baseline versus change in pEC50)” value is “cluster 3”; the “log τB (logarithm of the operational efficacy parameter of the allosteric modulator)” value is −0.09 ± 0.06; the “log αβ (logarithm of the functional cooperativity estimate between ACh and allosteric modulator)” value is on record as 0.85 ± 0.16. The compound further gave a Kb on hM1 mAChR [1] of 16.2 µM. For the same compound, the “log α (logarithm of the binding cooperativity between ACh and allosteric modulator)” value on hM1 mAChR [1] (setting [3]) was 0.81 ± 0.12.
For `CCNC(=O)c1ccc(COc2ccccc2-c2cc(=O)n(C3CCCCC3O)cn2)cc1` (centres unmarked) [Compound 15d, N-Ethyl-4-((2-(1-(2-hydroxycyclohexyl)-6-oxo-1,6-dihydropyrimidin-4-yl)phenoxy)methyl)benzamide] the same measures were “cluster 4”, 0.79 ± 0.04, 1.05 ± 0.20, 0.269 µM and 1.27 ± 0.13.
For the compound `O=C(c1ccc(COc2ccccc2-c2cc(=O)n(C3CCCCC3O)cn2)cc1)N1CCCCC1` (centres unmarked) [Compound 15e, 3-(2-Hydroxycyclohexyl)-6-(2-((4-(piperidine-1-carbonyl)benzyl)-oxy)phenyl)pyrimidin-4(3H)-one], on hM1 mAChR [2], the “cluster of two-point profile (change in baseline versus change in pEC50)” value is reported as “cluster 3”.
